# Laboratory results: US4438115A, “Compositions and methods for treating diseases in circulatory organs” (Chugai Seiyaku Kabushiki Kaisha, priority 1980, dated 1984)
# Counter-ions that a name gives are not always drawn.
# Key:
# systemic blood pressure [1] = test: Reduction of systemic blood pressure (Experiment 2(a)); assay type: in vivo, beagle (anesthetized); details: intravenous; for inhibition in vivo at 0.025 mg/kg: Canis lupus familiaris, Table 2, read-out: Average percent reduction in blood pressure; for Average low pressure retention time: Table 3
# Method: A beagle was anesthetized by intravenous injection of sodium pentobarbital and under artificial respiration an incision was made in the chest.
# 1. Systemic blood pressure (SBP): The SBP was measured by a pressure transducer that was connected to a catheter inserted into the right femoral artery.
# heart rate = test: Change in heart rate (Experiment 2(b)); assay type: in vivo, beagle (anesthetized); details: for Percent change in heart rate: Table 4, Experiment 2; for effect on heart rate (time course): in words
# Method: A beagle was anesthetized by intravenous injection of sodium pentobarbital and under artificial respiration an incision was made in the chest. The various actions of Compounds 1, 2, 3, 5 and 7 of the present invention were checked by the following procedures:
# 2. Heart rate (HR): The HR was measured by a cardiotachometer using the pulse wave of blood pressure as trigger pulse.
# As for the compounds of the present invention, a temporary increase was followed by a gradual decrease which started almost at the same time when a second phase reduction in blood pressure occurred (see FIG. 1).
# [2] = Acute toxicity, oral administration to rats for fourteen consecutive days; assay type: in vivo, male SD strain rats; details: 400 mg/Kg, as hydrochloride, male SD rats
# Method: The acute toxicity of Compounds Preparation Nos. 1 to 15 was examined by the oral administration of them to male SD strain rats (five rats per group) for fourteen consecutive days. All compounds had low toxicity and none supressed weight gain. No rat died upon administration of Compound 1 or 2 (both as hydrochloride) in a dose of 400 mg/Kg.
# systemic blood pressure [3] = test: Neurogenic hypertension by artery obstruction/stricture (Experiment 3); assay type: in vivo, beagle (hypertensive); details: intravenous, 25 μg/Kg; FIG. 2, FIG. 3
# Method: Hypertension was induced in a beagle by exciting the sympathetic nerve due to an obstruction of the bilateral vertebral artery and right common carotid artery, as well as a stricture of the left common carotid artery. The beagle was treated intravenously with 25 μg/Kg of Compounds 1 and 2.
# blood pressure = test: Blood pressure in unanesthetized SHR rats (Experiment 4); assay type: in vivo; details: oral, 10 mg/Kg; for blood pressure after dosing: 180±5.0 mmHg just before administration
# Method: Unanesthetized SHR rats (five rats per group) were administered orally 10 mg/Kg of Compound 1.
Compound,inhibition in vivo at 0.025 mg/kg (systemic blood pressure [1]; 25 μg/kg),Average low pressure retention time (systemic blood pressure [1]; 25 μg/kg),Percent change in heart rate (heart rate),"change in systemic blood pressure (time course, FIG. 1) (systemic blood pressure [1]; 25 μg/kg, in words)",also measured
"COc1ccccc1N1CCN(CCCCCCO)CC1 [C, reference compound]",12.6%,14.4 min,8.1%,–,–
"NNc1nncc2ccccc12 [A, hydralazine hydrochloride, reference compound]",–,–,–,–,"significant reduction in blood pressure (systemic blood pressure [1]; 25 μg/Kg, in words): did not exhibit significant reduction in blood pressure"
"COc1ccccc1N1CCN(CCCCCO)CC1 [B, reference compound]",16.1%,15.0 min,9.9%,–,–
"COc1ccccc1N1CCN(CCCCCCCO)CC1 [D, reference compound]",14.3%,22.5 min,-9.1%,–,–
"CCOC(=O)CCCCCN1CCN(c2ccccc2OC)CC1 [Compound 2, 1-(5-ethoxycarbonylpentyl)-4-(o-methoxyphenyl)piperazine]",22.4%,20.0 min,-1.6%,"the initial temporary reduction was followed by a reduction in the second phase, and the systemic blood pressure was maintained low thereafter","deaths upon administration [2]: No rat died; extension of low pressure retention time, hypertensive vs normal beagle (systemic blood pressure [3]): more effective; reduction of heart rate, hypertensive vs normal beagle (systemic blood pressure [3]): more effective; reduction of systemic blood pressure, hypertensive vs normal beagle (systemic blood pressure [3]): more effective"
"CCOC(=O)CCCN1CCN(c2ccccc2OC)CC1 [F, reference compound]",15.2%,8.8 min,11.2%,only temporary,effect on heart rate (time course) (heart rate): first increased the heart rate and thereafter the increased heart rate gradually returned to the normal level
"CCOC(=O)CCCCN1CCN(c2ccccc2OC)CC1 [Compound 7, 1-(4-ethoxycarbonylbutyl)-4-(o-methoxyphenyl)piperazine]",19.1%,13.4 min,13.2%,"the initial temporary reduction was followed by a reduction in the second phase, and the systemic blood pressure was maintained low thereafter",–
"CCOC(=O)CCCCCCN1CCN(c2ccccc2OC)CC1 [Compound 1, 1-(6-ethoxycarbonylhexyl)-4-(o-methoxyphenyl)piperazine]",25.5%,47.3 min,-9.6%,"the initial temporary reduction was followed by a reduction in the second phase, and the systemic blood pressure was maintained low thereafter","deaths upon administration [2]: No rat died; period of maintained low blood pressure compared with the others (systemic blood pressure [1]; 25 μg/kg, in words): maintained the blood pressure at low level for a longer period than did the others; extension of low pressure retention time, hypertensive vs normal beagle (systemic blood pressure [3]): more effective; reduction of heart rate, hypertensive vs normal beagle (systemic blood pressure [3]): more effective; reduction of systemic blood pressure, hypertensive vs normal beagle (systemic blood pressure [3]): more effective; blood pressure after dosing (blood pressure; 1 h): 127±11.6 mmHg; blood pressure after dosing (blood pressure; 2 h): 137±7.6 mmHg; duration of reduced blood pressure (blood pressure; in words): maintained at the reduced level for a satisfactorily long time"
"COC(=O)CCCCCCN1CCN(c2ccccc2OC)CC1 [Compound 5, 1-(6-methoxycarbonylhexyl)-4-(o-methoxyphenyl)piperazine]",23.1%,18.6 min,-2.2%,–,–
"CCOC(=O)CCN1CCN(c2ccccc2OC)CC1 [E, reference compound]",15.1%,6.8 min,16.8%,only temporary,effect on heart rate (time course) (heart rate): first increased the heart rate and thereafter the increased heart rate gradually returned to the normal level
"CCOC(=O)CCCCCCN1CCN(c2ccccc2OC(C)C)CC1 [Compound 3, 1-(6-ethoxycarbonylhexyl)-4-(o-isopropyloxyphenyl)piperazine]",22.1%,22.4 min,-4.0%,–,–
